Laboratory results as given in US20260297060A1, “COMPOUNDS FOR THE DEGRADATION OF MUTANT BRAF” (C4 THERAPEUTICS, INC., priority 2023, published 2026).
Like-named read-outs stand apart in the source and are kept apart here.

Assay: Pharmacokinetics in female BALB/c nude mice bearing A375 xenografts, 1 day dosing (PK and PD study): plasma, tumor and brain concentrations, AUC
Type: in vivo
Conditions: mouse, po
Description: The concentrations of Dabrafenib, Compound 26 and Compound 141 in the treatment of female BALB/c nude mice bearing A375 xenografts are shown in Table 62-Table 72 and FIG. 52-FIG. 73.

[1] = plasma, 3 mg/kg, 3 mg/kg p.o. BID × 1 day, post 1st dose, read-out: Mean Concentration in Plasma ± SEM
[2] = plasma, 3 mg/kg, 3 mg/kg p.o. BID × 1 day, post 2nd dose, read-out: Mean Concentration in Plasma ± SEM
[3] = plasma, 6 mg/kg, 6 mg/kg p.o. QD × 1 day, read-out: Mean Concentration in Plasma ± SEM
[4] = plasma, 10 mg/kg, 10 mg/kg p.o. BID × 1 day, post 1st dose, read-out: Mean Concentration in Plasma ± SEM
[5] = plasma, 10 mg/kg, 10 mg/kg p.o. BID × 1 day, post 2nd dose, read-out: Mean Concentration in Plasma ± SEM
[6] = tumor, 1.5 mg/kg, 1.5 mg/kg p.o. BID × 1 day, post 2nd dose, read-out: Mean Concentration in Tumor ± SEM
[7] = tumor, 2 mg/kg, 2 mg/kg p.o. TID × 1 day, post 3rd dose, read-out: Mean Concentration in Tumor ± SEM
[8] = tumor, 3 mg/kg, 3 mg/kg p.o. BID × 1 day, post 2nd dose, read-out: Mean Concentration in Tumor ± SEM
[9] = tumor, 6 mg/kg, 6 mg/kg p.o. QD × 1 day, read-out: Mean Concentration in Tumor ± SEM
[10] = tumor, 10 mg/kg, 10 mg/kg p.o. BID × 1 day, post 2nd dose, read-out: Mean Concentration in Tumor ± SEM

SMILES: CCN(C)S(=O)(=O)Nc1ccc(F)c(Oc2ccc3ncn([C@H]4COC5(CCN(C6CC7(C6)CN(c6cc8c(cc6F)c(N6CCC(=O)NC6=O)nn8C)C7)CC5)C4)c(=O)c3c2)c1C#N [Compound 26, (3R)-3-[6-[2-cyano-3-[[ethyl(methyl)sulfamoyl]amino]-6-fluoro-phenoxy]-4-oxo-quinazolin-3-yl]-8-[2-[3-(2,4-dioxohexahydropyrimidin-1-yl)-5-fluoro-1-methyl-indazol-6-yl]-2-azaspiro[3.3]heptan-6-yl]-1-oxa-8-azaspiro[4.5]decane]
- concentration at 4 h [1]: 3060 ± 172 ng/mL
- concentration at 8 h [1]: 645 ± 24.7 ng/mL
- concentration at 12 h [1]: 527 ± 130 ng/mL
- concentration at 0.25 h [2]: 1380 ± 113 ng/mL
- concentration at 0.5 h [2]: 2880 ± 325 ng/mL
- concentration at 1 h [2]: 4920 ± 1060 ng/mL
- concentration at 2 h [2]: 5290 ± 1110 ng/mL
- concentration at 4 h [2]: 2590 ± 422 ng/mL
- concentration at 10 h [2]: 1500 ± 194 ng/mL
- concentration at 24 h [2]: 20.5 ± 4.61 ng/mL
- concentration at 36 h [2]: 1.58 ng/mL
- concentration at 48 h [2]: 0.968 ± 0.0751 ng/mL
- concentration at 0.25 h [3]: 3250 ± 159 ng/mL
- concentration at 0.5 h [3]: 7680 ± 353 ng/mL
- concentration at 1 h [3]: 15200 ± 186 ng/mL
- concentration at 2 h [3]: 11600 ± 1450 ng/mL
- concentration at 4 h [3]: 6670 ± 1110 ng/mL
- concentration at 8 h [3]: 5720 ± 1940 ng/mL
- concentration at 10 h [3]: 3110 ± 682 ng/mL
- concentration at 24 h [3]: 185 ± 109 ng/mL
- concentration at 36 h [3]: 3.87 ± 0.735 ng/mL
- concentration at 48 h [3]: 1.07 ng/mL
- concentration at 0.25 h [4]: 7140 ± 1960 ng/mL
- concentration at 0.5 h [4]: 17400 ± 1470 ng/mL
- concentration at 1 h [4]: 25400 ± 10500 ng/mL
- concentration at 2 h [4]: 18800 ± 3020 ng/mL
- concentration at 4 h [4]: 7890 ± 2010 ng/mL
- concentration at 8 h [4]: 2920 ± 468 ng/mL
- concentration at 12 h [4]: 964 ± 248 ng/mL
- concentration at 0.25 h [5]: 6220 ± 623 ng/mL
- concentration at 0.5 h [5]: 12800 ± 1590 ng/mL
- concentration at 1 h [5]: 27000 ± 3530 ng/mL
- concentration at 2 h [5]: 20200 ± 1540 ng/mL
- concentration at 4 h [5]: 17100 ± 3470 ng/mL
- concentration at 10 h [5]: 4640 ± 318 ng/mL
- concentration at 24 h [5]: 143 ± 29.1 ng/mL
- concentration at 36 h [5]: 10.7 ± 2.46 ng/mL
- concentration at 48 h [5]: 10.6 ± 9.23 ng/mL
- AUC at 24 h (plasma, 1.5 mg/kg p.o. BID × 1 day, read-out: Plasma AUC at 24 hours, Average): 27600 ng·h/mL
- AUC at 24 h (plasma, 2 mg/kg p.o. TID × 1 day, read-out: Plasma AUC at 24 hours, Average): 41800 ng·h/mL
- AUC at 24 h (plasma, 3 mg/kg p.o. BID × 1 day, read-out: Plasma AUC at 24 hours, Average): 60200 ng·h/mL
- AUC at 24 h (plasma, 6 mg/kg p.o. QD × 1 day, read-out: Plasma AUC at 24 hours, Average): 85100 ng·h/mL
- AUC at 24 h (plasma, 10 mg/kg p.o. BID × 1 day, read-out: Plasma AUC at 24 hours, Average): 224000 ng·h/mL
- concentration at 1 h [6]: 164 ± 31.1 ng/g
- concentration at 4 h [6]: 552 ± 24.7 ng/g
- concentration at 10 h [6]: 246 ± 46.4 ng/g
- concentration at 24 h [6]: 28.3 ± 21.8 ng/g
- concentration at 48 h [6]: 5.63 ng/g
- concentration at 1 h [7]: 617 ± 49.7 ng/g
- concentration at 4 h [7]: 905 ± 48.2 ng/g
- concentration at 10 h [7]: 667 ± 154 ng/g
- concentration at 24 h [7]: 12 ± 2.59 ng/g
- concentration at 0.25 h [8]: 197 ± 15.3 ng/g
- concentration at 0.5 h [8]: 289 ± 31.1 ng/g
- concentration at 1 h [8]: 581 ± 107 ng/g
- concentration at 2 h [8]: 1230 ± 452 ng/g
- concentration at 4 h [8]: 1060 ± 233 ng/g
- concentration at 10 h [8]: 630 ± 39.9 ng/g
- concentration at 24 h [8]: 24.7 ± 7.5 ng/g
- concentration at 48 h [8]: 7.94 ng/g
- concentration at 1 h [9]: 882 ± 157 ng/g
- concentration at 4 h [9]: 2070 ± 259 ng/g
- concentration at 10 h [9]: 1320 ± 333 ng/g
- concentration at 24 h [9]: 89.1 ± 25.7 ng/g
- concentration at 48 h [9]: 24.2 ng/g
- concentration at 1 h [10]: 3500 ± 219 ng/g
- concentration at 4 h [10]: 4160 ± 413 ng/g
- concentration at 10 h [10]: 2060 ± 207 ng/g
- concentration at 24 h [10]: 624 ± 438 ng/g
- concentration at 48 h [10]: 81.6 ng/g
- AUC at 24 h (tumor, 1.5 mg/kg p.o. BID × 1 day, read-out: Tumor AUC at 24 hours, Average): 5750 ng·h/mL
- AUC at 24 h (tumor, 2 mg/kg p.o. TID × 1 day, read-out: Tumor AUC at 24 hours, Average): 11900 ng·h/mL
- AUC at 24 h (tumor, 3 mg/kg p.o. BID × 1 day, read-out: Tumor AUC at 24 hours, Average): 13300 ng·h/mL
- AUC at 24 h (tumor, 6 mg/kg p.o. QD × 1 day, read-out: Tumor AUC at 24 hours, Average): 25800 ng·h/mL
- AUC at 24 h (tumor, 10 mg/kg p.o. BID × 1 day, read-out: Tumor AUC at 24 hours, Average): 56700 ng·h/mL
